According to patent publication US4468511A, “C-20- And C-23-Modified macrolide derivatives” (Eli Lilly and Company, priority 1983, dated 1984):
Converted amounts (≈) assume the structure as drawn. Where two headings read alike, the source gives them in different places.

How the values were obtained:
[1] = system: Staphylococcus epidermidis EPI2; assay: MIC, standard agar-dilution assay; format: cell-based; details: Staphylococcus epidermidis, EPI2
Procedure: (§1) The MIC's in Table II were determined by standard agar-dilution assays. The MIC's in Table III were obtained using a conventional broth-dilution microtiter test.

[2] = system: Staphylococcus aureus X400; assay: MIC, standard agar-dilution assay; format: cell-based
Procedure: as §1

[3] = system: Haemophilus influenzae C.L.; assay: MIC, standard agar-dilution assay; format: cell-based
Procedure: as §1

[4] = system: Haemophilus influenzae 76; assay: MIC, standard agar-dilution assay; format: cell-based
Procedure: as §1

[5] = system: Pasteurella multocida 40G; assay: MIC, conventional broth-dilution microtiter test; format: cell-based; details: broth-dilution microtiter; Pasteurella multocida 40G; read-out: MIC
How it was run: (§2)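 Two formats were used. Broth dilution in microtiter plates served for Pasteurella and Mycoplasma, while agar dilution served for Klebsiella.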

[6] = system: Pasteurella hemolytica 23C; assay: MIC, conventional broth-dilution microtiter test; format: cell-based; details: broth-dilution microtiter; Pasteurella hemolytica 23C; read-out: MIC
How it was run: as §2

[7] = system: Mycoplasma gallisepticum 41313; assay: MIC, conventional broth-dilution microtiter test; format: cell-based; details: Mycoplasmoides gallisepticum; broth-dilution microtiter; Mycoplasma gallisepticum 41313, Resistant strain; read-out: MIC
How it was run: as §2

[8] = system: Pasteurella multocida 22A; assay: MIC, conventional broth-dilution microtiter test; format: cell-based; details: broth-dilution microtiter; Pasteurella multocida 22A; read-out: MIC
How it was run: as §2

[9] = system: Pasteurella hemolytica 41D; assay: MIC, conventional broth-dilution microtiter test; format: cell-based; details: broth-dilution microtiter; Pasteurella hemolytica 41D; read-out: MIC
How it was run: as §2

[10] = system: Streptococcus sp. 80; assay: MIC, conventional broth-dilution microtiter test; format: cell-based
Procedure: (§3) Certain of the derivatives are active against some gram-negative bacteria, such as Pasteurella species. The MIC's in Table II were determined by standard agar-dilution assays. The MIC's in Table III were obtained using a conventional broth-dilution microtiter test.

[11] = system: Mycoplasma hyorhinis; assay: MIC, conventional broth-dilution microtiter test; format: cell-based; details: broth-dilution microtiter; Mycoplasma hyorhinis; read-out: MIC
How it was run: (§4)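 Minimum inhibitory concentrations are determined by conventional broth dilution in microtiter wells for Pasteurella and Mycoplasma isolates. For Klebsiella pneumoniae KAE, the standard agar-dilution assay is used.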

[12] = system: Pasteurella multocida 17E; assay: MIC, conventional broth-dilution microtiter test; format: cell-based; details: broth-dilution microtiter; Pasteurella multocida 17E, Bovine isolate; read-out: MIC
How it was run: as §2

[13] = system: Mycoplasma gallisepticum; assay: MIC, conventional broth-dilution microtiter test; format: cell-based; details: Mycoplasmoides gallisepticum
How it was run: as §2

[14] = system: Mycoplasma synoviae; assay: MIC, conventional broth-dilution microtiter test; format: cell-based; details: Mycoplasmopsis synoviae
How it was run: as §4

[15] = system: Pasteurella hemolytica 22C; assay: MIC, conventional broth-dilution microtiter test; format: cell-based; details: broth-dilution microtiter; Pasteurella hemolytica 22C; read-out: MIC
How it was run: as §2

[16] = system: Staphylococcus aureus; assay: MIC, conventional broth-dilution microtiter test; format: cell-based
Procedure: as §3

[17] = system: Pasteurella multocida 60A; assay: MIC, conventional broth-dilution microtiter test; format: cell-based; details: broth-dilution microtiter; Pasteurella multocida 60A, Avian isolate; read-out: MIC
How it was run: as §2

[18] = system: Mycoplasma gallisepticum 34159; assay: MIC, conventional broth-dilution microtiter test; format: cell-based; details: Mycoplasmoides gallisepticum; broth-dilution microtiter; Mycoplasma gallisepticum 34159, Resistant strain; read-out: MIC
How it was run: as §2

[19] = system: Pasteurella multocida 68C; assay: MIC, conventional broth-dilution microtiter test; format: cell-based; details: broth-dilution microtiter; Pasteurella multocida 68C; read-out: MIC
How it was run: as §2

[20] = system: Staphylococcus aureus S13E; assay: microbe, parasite or virus in culture; format: cell-based
Procedure: as §1

[21] = system: Staphylococcus epidermidis EPI1; assay: microbe, parasite or virus in culture; format: cell-based
Procedure: as §1

[22] = system: Streptococcus pyogenes C203; assay: Protection of mice experimentally infected with S. pyogenes C203; format: in vivo
Procedure: Some of the derivatives of this invention have shown in vivo antimicrobial activity against experimentally-induced infections in laboratory animals. When two doses of test compound were administered to mice experimentally infected with S. pyogenes C203, the activity observed was measured as an ED50 value [effective dose in mg/kg to protect 50% of the test animals: see Warren Wick, et al., J. Bacteriol. 81, 233-235 (1961)].

[23] = system: Streptococcus pneumoniae Park I; assay: MIC, standard agar-dilution assay; format: cell-based; details: Streptococcus pneumoniae
Procedure: as §3

[24] = system: Streptococcus pyogenes 9960; assay: MIC, standard agar-dilution assay; format: cell-based
Procedure: as §3

[25] = system: Klebsiella pneumoniae X26; assay: MIC, standard agar-dilution assay; format: cell-based
How it was run: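 Broth microdilution MICs cover P. hemolytica, P. multocida and M. gallisepticum. The agar-dilution MIC covers K. pneumoniae only.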

[26] = system: Staphylococcus aureus X1.1; assay: MIC, standard agar-dilution assay; format: cell-based; details: Staphylococcus aureus, X1.1
How it was run: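 Minimum inhibitory concentration against Staphylococcus aureus strain X1.1 was measured with a standard agar-dilution method. The result is reported as the MIC in ug/mL, i.e. the lowest compound concentration in agar that prevents visible growth of this organism.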

[27] = system: Klebsiella pneumoniae KAE; assay: MIC, standard agar-dilution assay; format: cell-based; details: agar-dilution; Klebsiella pneumoniae KAE; read-out: MIC
How it was run: as §2

[28] = system: Escherichia coli TEM; assay: MIC, standard agar-dilution assay; format: cell-based; details: agar-dilution; Escherichia coli TEM; read-out: MIC
How it was run: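 Minimum inhibitory concentrations against Escherichia coli were measured with a standard agar-dilution method. The result for each derivative is the lowest concentration that inhibits bacterial growth, given in ug/mL.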

[29] = system: Escherichia coli EC14; assay: MIC, standard agar-dilution assay; format: cell-based; details: agar-dilution; Escherichia coli EC14; read-out: MIC
Procedure: as §3

[30] = system: Streptococcus pyogenes C203; assay: MIC, standard agar-dilution assay; format: cell-based
Procedure: as §3

[31] = system: Streptococcus Group D X66; assay: MIC, standard agar-dilution assay; format: cell-based; details: agar-dilution; Streptococcus Group D X66; read-out: MIC
Procedure: as §3

[32] = system: Staphylococcus aureus V41; assay: MIC, standard agar-dilution assay; format: cell-based
Procedure: as §3

[33] = C203, mice, oral, mg/kg × 2, doses given 1 and 4 hours postinfection, read-out: ED50 Oral

CCC1CC(C)C(=O)C=CC(C)=CC(CSc2ccccc2)C(CC)OC(=O)CC(O)C(C)C1OC1OC(C)C(O)C(N(C)C)C1O (stereo not drawn) [Compound 42, 23-Phenylthio-20,23-dideoxy-20-dihydro-OMT]
MIC [1]: 1 µg/mL (≈ 1.48 µM)
MIC ([2]; Staphylococcus aureus, X400): 1 µg/mL (≈ 1.48 µM)
MIC ([3]; Haemophilus influenzae): 16 µg/mL (≈ 23.7 µM)
MIC ([4]; Haemophilus influenzae, 76): 16 µg/mL (≈ 23.7 µM)
MIC [5]: 25 µg/mL (≈ 37 µM)
MIC [6]: 25 µg/mL (≈ 37 µM)
MIC [7]: 25 µg/mL (≈ 37 µM)
MIC [8]: 25 µg/mL (≈ 37 µM)
MIC [9]: 25 µg/mL (≈ 37 µM)
MIC ([10]; broth-dilution microtiter, Streptococcus sp. 80, read-out: MIC): 1.56 µg/mL (≈ 2.31 µM)
MIC [11]: 25 µg/mL (≈ 37 µM)
MIC [12]: 25 µg/mL (≈ 37 µM)
MIC [13]: 6.25 µg/mL (≈ 9.25 µM)
MIC [14]: 6.25 µg/mL (≈ 9.25 µM)
MIC [15]: 25 µg/mL (≈ 37 µM)
MIC ([16]; broth-dilution microtiter, read-out: MIC): 1.56 µg/mL (≈ 2.31 µM)
MIC [17]: 12.5 µg/mL (≈ 18.5 µM)
MIC [18]: 25 µg/mL (≈ 37 µM)
MIC [19]: 25 µg/mL (≈ 37 µM)
MIC [20]: 1 µg/mL (≈ 1.48 µM)
MIC ([21]; agar-dilution, Staphylococcus epidermidis EPI1, read-out: MIC): 0.5 µg/mL (≈ 0.74 µM)
ED50 [22, 33]: 78 mg/kg
ED50 ([22]; C203, sc, read-out: ED50 Subcutaneous): > 25 mg/kg
MIC [23]: 0.12 µg/mL (≈ 0.178 µM)
MIC [24]; 9960: 1 µg/mL (≈ 1.48 µM)
MIC ([25]; agar-dilution, Klebsiella pneumoniae X26, read-out: MIC): 16 µg/mL (≈ 23.7 µM)
MIC [26]: 1 µg/mL (≈ 1.48 µM)
MIC [27]: > 128 µg/mL
MIC [28]: > 128 µg/mL
MIC [29]: > 128 µg/mL
MIC ([30]; Streptococcus pyogenes, C203): 1 µg/mL (≈ 1.48 µM)
MIC [31]: 0.5 µg/mL (≈ 0.74 µM)
MIC ([32]; agar-dilution, Staphylococcus aureus V41, Penicillin-resistant strain, read-out: MIC): 0.5 µg/mL (≈ 0.74 µM)

CCC1CC(C)C(=O)C=CC(C)=CC(COc2cccc(N(C)C)c2)C(CC)OC(=O)CC(O)C(C)C1OC1OC(C)C(O)C(N(C)C)C1O (stereo not drawn) [Compound 44, 23-O-(m-Dimethylaminophenyl)-20-deoxy-20-dihydro-OMT]
MIC [1]: 0.5 µg/mL (≈ 0.711 µM)
MIC ([2]; agar-dilution, Staphylococcus aureus X400, Methicillin-resistant strain, read-out: MIC): 2 µg/mL (≈ 2.85 µM)
MIC ([3]; agar-dilution, Haemophilus influenzae C.L., Ampicillin-sensitive strain, read-out: MIC): 16 µg/mL (≈ 22.8 µM)
MIC ([4]; agar-dilution, Haemophilus influenzae 76, Ampicillin-resistant strain, read-out: MIC): 16 µg/mL (≈ 22.8 µM)
MIC [5]: 25 µg/mL (≈ 35.6 µM)
MIC [6]: > 50 µg/mL
MIC [7]: 12.5 µg/mL (≈ 17.8 µM)
MIC [8]: 50 µg/mL (≈ 71.1 µM)
MIC [9]: > 50 µg/mL
MIC ([10]; Streptococcus, SP.80): 3.12 µg/mL (≈ 4.44 µM)
MIC [11]: 50 µg/mL (≈ 71.1 µM)
MIC [12]: 50 µg/mL (≈ 71.1 µM)
MIC [13]: 3.12 µg/mL (≈ 4.44 µM)
MIC ([14]; broth-dilution microtiter, Mycoplasma synoviae, read-out: MIC): 12.5 µg/mL (≈ 17.8 µM)
MIC [15]: > 50 µg/mL
MIC [16]: 1.56 µg/mL (≈ 2.22 µM)
MIC [17]: 25 µg/mL (≈ 35.6 µM)
MIC [18]: 12.5 µg/mL (≈ 17.8 µM)
MIC [19]: 25 µg/mL (≈ 35.6 µM)
MIC [20]: 1 µg/mL (≈ 1.42 µM)
MIC ([21]; Staphylococcus epidermidis, EPI1): 1 µg/mL (≈ 1.42 µM)
ED50 [22, 33]: > 50 mg/kg
ED50 ([22]; C203, sc, mice, subcutaneous, mg/kg × 2, doses given 1 and 4 hours postinfection, read-out: ED50 Subcutaneous): > 10 mg/kg
MIC [23]: 0.5 µg/mL (≈ 0.711 µM)
MIC ([24]; agar-dilution, Streptococcus 9960, read-out: MIC): 2 µg/mL (≈ 2.85 µM)
MIC ([25]; Klebsiella pneumoniae, X26): 32 µg/mL (≈ 45.5 µM)
MIC [26]: 1 µg/mL (≈ 1.42 µM)
MIC [27]: > 128 µg/mL
MIC [28]: > 128 µg/mL
MIC [29]: > 128 µg/mL
MIC ([30]; agar-dilution, Streptococcus pyogenes C203, read-out: MIC): 4 µg/mL (≈ 5.69 µM)
MIC [31]: 2 µg/mL (≈ 2.85 µM)
MIC ([32]; Staphylococcus aureus, V41): 1 µg/mL (≈ 1.42 µM)
